Assays:
Assay in all cases: relative viability (nuclei count vs DMSO), 5 days (fraction); higher = more cells survive
BAM7 = compound: CCOC1=CC=CC=C1N=NC2=C(NN(C2=O)C3=NC(=CS3)C4=CC=CC=C4)C [BAM7]
How it was run: (§1)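 Hoechst staining, done together with fixation and permeabilisation, marked nuclei for 4× imaging and MetaXpress counting. This followed 5 days without medium change after lung cancer cell lines, kept overnight at 37 °C in 1536-well plates, were pinned with five library-drug doses (not always all listed) spaced by √10 on vehicle-anchored plates. Viability is the ratio of treated-well to vehicle-well nuclei, expressed as a median across plates. Plates passed only at control CV below 25% with at least one doubling.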

[1] = compound: CCn1c(-c2nonc2N)nc2c(C#CC(C)(C)O)ncc(OC[C@H]3CCCNC3)c21
How it was run: as §1

[2] = compound: CCn1c(-c2nonc2N)nc2c(C#CC(C)(C)O)ncc(OC[C@H]3CCCNC3)c21 + CC(C)C[C@H](NC(=O)[C@H](Cc1ccccc1)NC(=O)c1cnccn1)B(O)O [Bortezomib] (partner 0.002 µM)
How it was run: (§2)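 Lung cancer cell lines were pin-tool dosed in 1536-well plates on the day after seeding, with either a lone drug or a fixed anchor-drug dose plus five library-drug doses (not always all listed) in √10 steps. Nuclei were counted on 4× images after 5 days. Relative viability is the ratio of treated-well to vehicle-well nuclei counts, with each value a median of duplicate plates.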

BAM7 + Alpelisib = compound: CCOC1=CC=CC=C1N=NC2=C(NN(C2=O)C3=NC(=CS3)C4=CC=CC=C4)C [BAM7] + Cc1nc(NC(=O)N2CCC[C@H]2C(N)=O)sc1-c1ccnc(C(C)(C)C(F)(F)F)c1 [Alpelisib] (partner 2 µM)
How it was run: as §2

Cell Line	relative viability (BAM7; 0.5 µM)	relative viability (BAM7; 5 µM)	relative viability (BAM7; 15.81 µM)	relative viability (BAM7; 50 µM)	relative viability ([1]; 0.01 µM)	relative viability ([1]; 0.03162 µM)	relative viability ([1]; 0.1 µM)	relative viability ([1]; 0.3162 µM)	relative viability ([1]; 1 µM)	relative viability ([2]; first compound 0.01 µM)	relative viability ([2]; first compound 0.03162 µM)	relative viability ([2]; first compound 0.1 µM)	relative viability ([2]; first compound 0.3162 µM)	relative viability ([2]; first compound 1 µM)	relative viability (BAM7 + Alpelisib; first compound 0.5 µM)	relative viability (BAM7 + Alpelisib; first compound 5 µM)	relative viability (BAM7 + Alpelisib; first compound 15.81 µM)	relative viability (BAM7 + Alpelisib; first compound 50 µM)
Calu-6	1.07	1.06	0.989	0.995	0.995	1.02	1.02	0.982	1.03	1.01	1.06	1.1	0.998	1.12	0.986	0.931	0.932	1.11
EBC-1	1.05	1.04	0.952	1.06	0.986	0.963	0.973	0.883	0.757	0.549	0.566	0.521	0.488	0.444	1.05	0.805	0.814	0.953
SW 1573	1.03	1.18	0.969	1.08	0.98	0.932	0.871	0.677	0.777	0.993	0.946	0.864	0.908	0.646	0.777	0.833	0.85	0.75
A-427	1.05	1.08	1	1.09	0.994	1.06	0.918	0.965	1.08	0.975	0.991	1.08	1.01	1.01	0.687	1.16	1.11	1.06
NCI-H2347	1.13	1.11	1.06	1.03	1	1.03	0.956	1	0.93	0.644	0.861	–	0.888	0.933	1.03	1.23	1.04	0.985
NCI-H1355	0.971	0.888	0.862	0.91	0.932	0.904	0.958	0.945	0.992	1.23	1.11	1.15	1.13	1.19	0.786	0.832	0.725	0.772
PC-3 [JPC-3]	0.967	1.02	0.974	0.917	1.02	1.02	1.05	0.996	1.08	0.82	0.852	0.796	0.781	0.808	1.02	0.99	0.876	0.907
NCI-H2228	1.06	0.968	0.914	1.2	0.938	1.1	1.04	0.848	0.809	1.06	1.28	0.912	0.584	0.737	0.863	0.879	0.763	0.607
HOP-62	1.03	1.09	1.07	1.07	0.989	0.945	1.01	0.976	1.01	0.623	0.615	0.803	0.376	0.922	0.921	0.826	0.901	0.797
HARA	0.942	1.01	0.836	0.986	0.85	0.97	0.722	0.876	0.778	1.1	1.14	1.08	1.07	1.11	0.879	0.816	0.594	0.847
NCI-H838	1.03	1.04	0.946	1.06	1.01	1	0.993	0.846	0.963	1.25	0.971	0.945	0.545	0.655	1.06	1.05	0.989	1
NCI-H1755	1.02	1.03	0.978	1.02	0.989	1.03	0.973	0.903	1.01	0.956	0.917	0.939	0.923	0.906	0.994	0.982	0.902	0.948
HCC-78	1.06	0.879	1.07	1.04	0.882	0.926	0.971	0.962	0.844	0.553	0.513	0.503	0.498	0.527	0.395	0.21	0.294	0.365
IA-LM	0.988	0.979	0.85	1.15	1.01	1.05	1.01	0.852	0.853	0.854	0.77	0.877	0.679	0.373	0.67	0.648	0.659	0.994
NCI-H322M	0.922	0.96	1	0.991	0.887	0.763	0.839	0.827	0.828	1.21	1.18	1.26	1.19	1.19	0.859	0.816	0.803	0.801
NCI-H3122	1.02	1.09	1.01	1.01	1	0.973	1.06	0.991	1.01	1.05	1.03	1.07	1.1	1.08	0.881	0.822	0.804	0.763
COR-L23	0.982	1.07	0.966	1.01	0.991	1.04	0.986	0.973	1.04	1.01	0.961	0.97	0.884	0.938	0.804	0.714	0.685	0.752
NCI-H2087	1.18	1.14	1.11	1.13	0.931	1.05	1.04	1.06	0.915	0.682	0.873	0.655	0.766	0.774	1.17	1.15	0.917	0.985

Cell Line	relative viability (BAM7; 0.5 µM)	relative viability (BAM7; 5 µM)	relative viability (BAM7; 15.81 µM)	relative viability (BAM7; 50 µM)	relative viability ([1]; 0.01 µM)	relative viability ([1]; 0.03162 µM)	relative viability ([1]; 0.1 µM)	relative viability ([1]; 0.3162 µM)	relative viability ([1]; 1 µM)	relative viability ([2]; first compound 0.01 µM)	relative viability ([2]; first compound 0.03162 µM)	relative viability ([2]; first compound 0.1 µM)	relative viability ([2]; first compound 0.3162 µM)	relative viability ([2]; first compound 1 µM)	relative viability (BAM7 + Alpelisib; first compound 0.5 µM)	relative viability (BAM7 + Alpelisib; first compound 5 µM)	relative viability (BAM7 + Alpelisib; first compound 15.81 µM)	relative viability (BAM7 + Alpelisib; first compound 50 µM)
LC-2-ad	0.961	1	0.939	1.01	0.903	0.951	0.964	0.949	0.989	0.986	0.993	1.03	0.977	0.968	0.998	0.893	0.746	0.855
NCI-H1915	1.01	1.13	0.989	0.991	0.965	1.03	0.917	0.983	0.996	0.982	1.01	0.904	0.975	0.921	1.08	1.11	1.03	1.05
NCI-H2023	0.917	0.823	0.793	1.02	0.929	0.949	0.909	0.767	0.834	0.924	0.977	0.904	0.861	0.912	0.639	0.507	0.502	0.485
COR-L 105	0.833	0.909	0.95	1.14	0.919	0.961	1.01	0.843	1.04	0.82	0.783	1	0.693	0.763	1.01	1.06	0.967	0.981
RERF-LC-KJ	0.94	0.913	0.745	0.812	0.959	0.97	0.99	0.966	1.05	0.997	1.11	1.06	0.974	1.2	0.814	0.823	0.716	0.766
LXF-289	1.06	1.07	1.01	0.929	1.03	0.991	1.03	0.972	1.11	1	0.963	1	0.976	1.02	1.1	1.11	1.02	1.07
PC-14	1.04	1.06	1	1.01	0.937	1	1.11	0.954	1.03	0.966	0.84	0.956	0.813	0.852	0.983	0.841	0.915	0.906
NCI-H650	0.944	1.1	0.955	1.22	0.788	0.854	0.854	0.998	0.832	0.679	0.604	0.759	0.758	0.635	1.03	1.33	1.04	1.08
NCI-H1666	1.03	1	1.09	1.05	1.02	0.956	1.01	0.949	0.954	0.688	0.678	0.869	0.762	0.841	1.04	0.892	0.9	0.984
NCI-H2085	0.995	0.976	0.933	1.01	0.991	0.977	1	0.937	0.97	0.861	1.02	1.03	1.03	1.05	0.957	1.07	0.834	0.981
NCI-H1734	1.03	1.07	1	1.1	0.95	0.978	0.893	0.932	0.86	0.872	0.965	0.875	0.344	0.648	0.74	0.804	0.638	0.676
NCI-H2126	0.944	0.879	0.867	0.898	0.98	0.908	0.995	0.996	1.02	1.05	1.13	1.08	1.09	1.1	0.703	0.677	0.606	0.704
EMC-BAC-2	1.03	1.08	1.22	1.02	0.919	0.725	0.933	0.937	1.04	1.02	1	0.996	1.06	1.07	0.801	0.778	0.713	0.772
NCI-H1993	0.776	0.764	0.744	0.737	0.968	0.976	0.985	0.92	0.852	1.23	1.23	1.11	1.03	0.975	0.766	0.689	0.585	0.629
NCI-H520	1	1.02	1.01	1.09	0.905	0.921	0.779	0.753	0.665	0.79	0.887	0.529	0.249	0.399	1.03	1.01	0.947	0.865
NCI-H647	1.02	1.07	0.894	1.07	0.982	0.995	0.952	0.918	0.981	0.972	1.25	0.937	1.02	0.812	1.27	1.32	1.05	1.17
NCI-H1792	1.02	1.06	1.07	0.873	0.887	0.636	0.939	0.908	0.932	1.04	0.968	0.964	0.861	0.768	0.782	0.85	0.624	0.708
